In article PMC7443514 (Bioorganic & medicinal chemistry, 2020):
Read-outs that look alike come from different tables or passages of the source.

Assays:
[1] = target: T1, SARM1 TIR domain (bacterial lysate) (Homo sapiens, UniProt Q6SZW1); type: biochemical; conditions: ENAD 0-400 μM; for Inhibition Mechanism: bacterially expressed TIR domain lysate
T1 sequence (Q6SZW1 561-724): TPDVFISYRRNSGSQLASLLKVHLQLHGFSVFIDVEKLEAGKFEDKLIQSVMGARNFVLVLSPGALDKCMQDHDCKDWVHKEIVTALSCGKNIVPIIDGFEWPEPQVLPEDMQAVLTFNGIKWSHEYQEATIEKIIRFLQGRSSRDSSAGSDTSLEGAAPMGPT

SARM1 = conditions: substrate analog; cited from earlier work
[2] = target: T2, purified SARM1 TIR domain (Homo sapiens, UniProt Q6SZW1); assay: Dose response, ENAD assay, purified TIR domain; type: biochemical; conditions: purified TIR domain (20 μM), 500 μM ENAD
T2 sequence (Q6SZW1 561-724): T1 sequence (Q6SZW1 561-724)

[3] = target: T1, SARM1 TIR domain (bacterial lysate); conditions: cited from earlier work

**Q.** For `C[C@H]1c2cccc(O)c2C(=O)C2=C(O)[C@]3(O)C(=O)C(C(N)=O)=C(O)[C@@H](N(C)C)[C@@H]3[C@@H](O)[C@@H]21.Cl` [Doxycycline Hydrochloride, Doxycycline hydrochloride], which “Inhibition Mechanism” value [1] is on record?
**A.** Noncompetitive

**Q.** Which results are given for `NC(=O)c1ccc[n+]([C@@H]2O[C@H](COP(=O)([O-])OP(=O)(O)OC[C@H]3O[C@@H](n4cnc5c4ncn4ccnc54)[C@H](O)[C@@H]3O)[C@@H](O)[C@H]2O)c1` [ENAD, Nicotinamide 1,N^6-ethenoadenine dinucleotide]?
**A.** Km (SARM1): 35 ± 15 µM; kcat (SARM1): 0.05 ± 0.04 s⁻¹

**Q.** With `NC(=O)N/N=C/c1ccc([N+](=O)[O-])o1` [Nitroflurazone] as the compound, how does the “Inhibition Mechanism” value [1] read?
**A.** Noncompetitive

**Q.** With `Cl.Nc1ccc(/N=N/c2ccccc2)c(N)n1` [Phenazopyridine Hydrochloride, Phenazopyridine hydrochloride] as the compound, how does the “Inhibition Mechanism” value [1] read?
**A.** Competitive

**Q.** Which “Inhibition Mechanism” value [1] does the source give for `[O-][n+]1ccccc1[S-].[O-][n+]1ccccc1[S-].[Zn+2]` [Pyrithone Zinc, Pyrithone zinc] here?
**A.** Noncompetitive

**Q.** With `[Cl-].[Cl-].[Zn+2]` [Zinc Chloride, Zinc chloride] as the compound, how does the Ki ([1]; bacterially expressed TIR domain (300 nM) lysate) read?
**A.** 3.3 ± 0.1 µM

**Q.** And the “Inhibition Mechanism” value [1]?
**A.** Noncompetitive

**Q.** What about the IC50 [2] of the same compound?
**A.** 10 ± 1 µM

**Q.** And the Inhibition Mechanism [3]?
**A.** noncompetitive

**Q.** And the Ki [3]?
**A.** 3.3 ± 0.1 µM
